Laboratory results reported in patent US9688689B2, “Compounds and compositions for inducing chondrogenesis” (Novartis AG, priority 2014, dated 2017).

System: Primary articular chondrocytes from normal bovine knees
Experiment: NO Release Assay in Bovine Chondrocytes (inhibition of cytokine induced NO release, Greiss reagent)
Assay type: cell-based
Conditions: Bos taurus, Chondrocyte; 20 ng/ml TNFα and 10 ng/ml human oncostatin M, 48 hours; read-out: NO Inh. IC50
Method: The compounds of the present invention were evaluated in two functional assays to assess their chondrogenesis activities (Type II Collagen Expression) and chondrocyte protective activities (NO release assay).
The assay was described in Johnson, K., et al., (2012) Science 336, 717-721. Chondrocytes release NO during OA pathogenesis. This assay measures the inhibition of nitric oxide release by the treated compound (an indicator of chondro-protection) Primary articular chondrocytes from normal bovine knees (Animal Technologies, Tyler, Tex.) were isolated after dissection and collagenase digestion (Worthington Biochemical) of the tibial plateau and femoral condyle articular cartilage. The cells were initially plated at 80-90% confluency after isolation. Primary chondrocytes were cultured in high-glucose Dulbecco's modified Eagle's medium (DMEM) supplemented with 10% fetal bovine serum (FBS), 1% L-glutamine, 100 units/ml of penicillin, and 50 μg/ml of streptomycin (Life Technologies, Carlsbad, Calif.) and maintained at 37° C. in the presence of 5% CO2 for 7 days prior to initiation of each experiment. During the 7-day culture period, the cells adhered and established a chondrocyte-like appearance that was maintained throughout the experimental period. Functional studies on chondrocytes were performed in high-glucose DMEM with no FBS unless indicated otherwise.
After one week of culture, 8500 cells were plated per well in Greiner 384 well white clear bottom plates in growth media. Following 24 hours of culture, the media was removed and replaced with serum free DMEM containing 20 ng/ml TNFα and 10 ng/ml human oncostatin M (inflammatory mediators). […] 20 μl of the supernatant was mixed with 20 μl of the Greiss reagent (Promega # G2930) and quantitated at 540 nm. The Greiss reagent part A (1% Sulfanilamide in 5% phosphoric acid) was mixed at a 1:1 ration with Greiss reagent part B (0.1% N-1-napthylethylenediamine dihydrochloride in water) immediately prior to added to the culture supernatant.

| Compound | IC50 [µM] |
| --- | --- |
| O=C(Nc1ccc(Cl)c(Cl)c1)[C@@H]1[C@@H](c2ccncc2)[C@@H]2CC[C@H]1O2 (single isomer, unassigned) [Compound 71] | > 29 |
| O=C(Nc1ccc(Cl)c(Cl)c1)[C@H]1[C@H](c2ccncc2)[C@H]2CC[C@@H]1O2 (single isomer, unassigned) [Compound 103] | > 29 |
| Nc1cc([C@@H]2[C@@H](C(=O)Nc3ccc(Cl)c(Cl)c3)[C@H]3CC[C@@H]2O3)ccn1 (single isomer, unassigned) [Compound 107] | > 33 |
| Nc1cc([C@@H]2[C@H](C(=O)Nc3ccc(Cl)c(Cl)c3)[C@H]3CC[C@@H]2O3)ccn1 (single isomer, unassigned) [Compound 115] | 26 |
| CCOC(=O)c1ccccc1NC(=O)[C@H]1[C@@H](c2nc(-c3ccc(Cl)cc3)no2)[C@@H]2CC[C@H]1O2 [Compound 2] | > 30 |
| Nc1cc([C@@H]2[C@@H](C(=O)Nc3ccc(Cl)c(Cl)c3)[C@H]3CC[C@@H]2O3)ccn1 [Compound 5] | 16 |
| O=C(Nc1ccc(Cl)c(Cl)c1)[C@@H]1[C@H](c2ccncc2)[C@H]2CC[C@@H]1O2 [Compound 8] | > 33 |
| COC(=O)c1cc(-c2ccccc2)ccc1NC(=O)[C@H]1[C@@H](c2nc(-c3ccc(Cl)cc3)no2)[C@@H]2CC[C@H]1O2 [Compound 9] | > 11.1 |
| Nc1cc([C@H]2[C@H](C(=O)Nc3ccc(Cl)c(Cl)c3)[C@@H]3CC[C@H]2O3)ccn1 [Compound 10] | 22 |
| O=C(Nc1ccc(Cl)c(Cl)c1)[C@H]1[C@@H](c2ccncc2)[C@@H]2CC[C@H]1O2 [Compound 11] | > 33 |
| CCOC(=O)c1ccc(NC(=O)[C@H]2[C@@H](c3nc(-c4ccc(Cl)cc4)no3)[C@@H]3CC[C@H]2O3)cc1 [Compound 17] | > 11.1 |
| O=C(Nc1ccc(Cl)c(F)c1)[C@@H]1[C@H](c2ccncc2)[C@@H]2CC[C@H]1O2 [Compound 18] | > 33 |
| N#Cc1cc([C@H]2[C@@H](C(=O)Nc3ccc(-c4ccccc4F)c(F)c3)[C@H]3CC[C@@H]2O3)ccn1 [Compound 20] | > 33 |
| COC(=O)c1cc(Cl)ccc1NC(=O)[C@H]1[C@H](c2ccncc2)[C@@H]2CC[C@H]1O2 [Compound 24] | > 33 |
| O=C(Nc1ccc(-c2ccccc2Cl)c(F)c1)[C@H]1[C@H](c2ccncc2)[C@@H]2CC[C@H]1O2 [Compound 26] | > 3.4 |
| O=C(Nc1ccc(-c2ccccc2F)c(Cl)c1)[C@@H]1C(c2cccc(C(F)(F)F)n2)[C@@H]2CC[C@H]1O2 (stereo partly drawn) [Compound 27] | > 33 |
| O=C(Nc1ccc(-c2ccccc2Cl)c(F)c1)C1=C(c2ccnn2C2CCOCC2)[C@@H]2CCC1O2 [Compound 31] | > 33 |
| Cc1cc(C2=C(C(=O)Nc3ccc(-c4ccccc4F)c(F)c3)C3CC[C@@H]2O3)ccn1 [Compound 32] | > 27 |
| O=C(Nc1ccc(Cl)c(F)c1)[C@H]1[C@H](c2ccncc2)[C@@H]2CC[C@H]1O2 [Compound 33] | > 33 |
| O=C(Nc1cnc(-c2ccccc2)nc1)C1=C(c2ccncc2)C2CCC1O2 (stereo not drawn) [Compound 38] | > 33 |

| Compound | IC50 [µM] |
| --- | --- |
| O=C(Nc1ccc(-c2ccccc2)c(Cl)c1)[C@H]1[C@H](c2ccncc2)[C@@H]2CC[C@H]1O2 [Compound 39] | > 33 |
| O=C(Nc1cccc(Cl)c1F)[C@H]1[C@H](c2ccncc2)[C@@H]2CC[C@H]1O2 [Compound 41] | > 33 |
| CCOC(=O)c1ccc(NC(=O)C2=C(c3cccc(C(F)(F)F)n3)[C@@H]3CCC2O3)cc1F [Compound 43] | > 33 |
| O=C(Nc1ccc(-c2ccccc2F)c(F)c1)C1=C(c2ccnc(Cl)c2)[C@@H]2CCC1O2 [Compound 44] | 28 |
| O=C(Nc1ccc(-c2ccccc2)c(Cl)c1)C1=C(c2ccn[nH]2)[C@@H]2CC[C@H]1O2 [Compound 47] | 18 |
| Nc1cc(C2=C(C(=O)Nc3ccc(-c4ccccc4F)c(F)c3)C3CC[C@@H]2O3)ccn1 [Compound 49] | > 33 |
| O=C(Nc1ccc(-c2ccccc2)c(Cl)c1)C1=C(c2ccnn2C2CCOCC2)[C@@H]2CCC1O2 [Compound 50] | 14 |
| O=C(Nc1cccc(OC(F)(F)F)c1F)C1=C(c2ccncc2)[C@@H]2CCC1O2 [Compound 51] | 26 |
| O=C(Nc1ccc(-c2ccccc2F)c(F)c1)[C@H]1[C@H](c2ccncc2)[C@@H]2CC[C@H]1O2 [Compound 52] | > 33 |
| COC(=O)c1cc(Cl)ccc1NC(=O)C1=C(c2ccncc2)[C@@H]2CCC1O2 [Compound 54] | > 33 |
| N#Cc1cc(C2=C(C(=O)Nc3ccc(-c4ccccc4F)c(F)c3)C3CC[C@@H]2O3)ccn1 [Compound 56] | > 33 |
| Cc1cc(NC(=O)C2=C(c3ccncc3)[C@@H]3CCC2O3)nn1-c1ccccc1 [Compound 61] | > 33 |
| O=C(Nc1ccc(-c2ccccc2F)c(F)c1)C1=C(c2ccnn2C2CCOCC2)C2CCC1O2 (stereo not drawn) [Compound 62] | 15 |
| Nc1cc([C@H]2[C@@H](C(=O)Nc3ccc(-c4ccccc4F)c(F)c3)[C@H]3CC[C@@H]2O3)ccn1 [Compound 64] | > 33 |
| Cn1cc2cc([C@H]3[C@@H](C(=O)Nc4ccc(-c5ccccc5F)c(F)c4)[C@H]4CC[C@@H]3O4)ccc2n1 [Compound 65] | > 33 |
| CCOC(=O)c1ccc(NC(=O)C2=C(c3ccncc3)C3CCC2O3)cc1F (stereo not drawn) [Compound 67] | > 33 |
| Cc1cc([C@@H]2[C@@H](C(=O)Nc3ccc(Cl)c(Cl)c3)[C@H]3CC[C@@H]2O3)ccn1 [Compound 69] | 21 |
| O=C(Nc1ccc(-c2ccc(F)cc2F)c(F)c1)[C@H]1[C@H](c2ccncc2)[C@@H]2CC[C@H]1O2 [Compound 70] | > 33 |
| O=C(Nc1ccc(-c2ccccc2)cc1)[C@@H]1[C@H](c2ccncc2)[C@@H]2CC[C@H]1O2 [Compound 74] | > 33 |
| O=C(Nc1ccc(-c2ccccc2Cl)c(F)c1)[C@@H]1[C@@H](c2ccncc2)[C@@H]2CC[C@H]1O2 [Compound 76] | > 33 |

| Compound | IC50 [µM] |
| --- | --- |
| CN(C)c1ncc([C@H]2[C@@H](C(=O)Nc3ccc(-c4ccccc4F)c(F)c3)[C@H]3CC[C@@H]2O3)cn1 [Compound 78] | 0.24 |
| O=C(Nc1ccc(-c2ccccc2F)c(F)c1)[C@@H]1[C@@H](c2ccccn2)[C@@H]2CC[C@H]1O2 [Compound 80] | > 17 |
| O=C(Nc1ccc(-c2ccccc2)c(Cl)c1)[C@@H]1[C@@H](c2cccc(C(F)(F)F)n2)[C@@H]2CC[C@H]1O2 [Compound 83] | > 33 |
| O=C(Nc1ccc(-c2ccccc2F)c(F)c1)[C@@H]1[C@@H](c2cccc(C(F)(F)F)n2)[C@@H]2CC[C@H]1O2 [Compound 86] | > 33 |
| O=C(Nc1ccc(-c2ccccc2F)c(F)c1)[C@@H]1[C@H](c2cc(Cl)nc(Cl)c2)[C@@H]2CC[C@H]1O2 [Compound 87] | > 33 |
| Cn1nc(C(F)(F)F)cc1[C@@H]1[C@@H](C(=O)Nc2ccc(Cl)c(Cl)c2)[C@H]2CC[C@@H]1O2 [Compound 89] | > 33 |
| O=C(Nc1ccc(Cl)c(Cl)c1)[C@@H]1[C@@H](c2cccc(C(F)(F)F)n2)[C@@H]2CC[C@H]1O2 [Compound 92] | > 33 |
| C[C@]12CC[C@](C)(O1)[C@@H](c1ccncc1)[C@H]2C(=O)Nc1ccc(-c2ccccc2F)c(F)c1 [Compound 93] | > 33 |
| O=C(Nc1ccc(-c2ccccc2F)c(F)c1)[C@@H]1[C@H](c2ccnc(F)c2Cl)[C@@H]2CC[C@H]1O2 [Compound 95] | 0.18 |
| O=C(Nc1ccc(-c2ccccc2F)c(F)c1)C1=C(c2ccnc(F)c2Cl)[C@@H]2CCC1O2 [Compound 97] | 22.6 |
| O=C(Nc1ccc(-c2ccccc2)c(Cl)c1)[C@@H]1[C@@H](c2ccncc2)[C@@H]2CC[C@H]1O2 [Compound 98] | > 33 |
| O=C(Nc1ccc(-c2ccccc2)c(Cl)c1)[C@H]1[C@@H](c2ccncc2)[C@@H]2CC[C@H]1O2 [Compound 104] | > 33 |
| O=C(Nc1ccc(-c2ccccc2F)c(F)c1)C1=C(c2ccncc2F)[C@@H]2CCC1O2 [Compound 109] | > 33 |
| O=C(Nc1ccc(-c2ccc(F)cc2F)c(F)c1)[C@@H]1[C@@H](c2ccncc2)[C@@H]2CC[C@H]1O2 [Compound 111] | > 33 |
| O=C(Nc1ccc(-c2ccccc2F)c(F)c1)C1=C(c2cc(Cl)nc(Cl)c2)[C@@H]2CC[C@H]1O2 [Compound 116] | 0.12 |
| O=C(Nc1ccc(Cl)c(Cl)c1)[C@@H]1[C@@H](c2ccncc2)[C@@H]2CC[C@H]1O2 [Compound 118, (1R,2R,3S,4S)—N-(3,4-dichlorophenyl)-3-(pyridin-4-yl)-7-oxabicyclo[2.2.1]heptane-2-carboxamide] | > 33 |
| O=C(Nc1ccc(-c2ccccc2)cc1)[C@H]1[C@@H](c2cccnc2)[C@H]2CC[C@@H]1O2 [Compound 121] | > 23 |
| Cn1ccc([C@@H]2[C@H](C(=O)Nc3ccc(-c4ccccc4)cc3)[C@@H]3CC[C@H]2O3)n1 [Compound 122] | > 33 |
| O=C(Nc1ccc(-c2ccccc2Cl)c(F)c1)[C@H]1[C@@H](c2cccc(C(F)(F)F)n2)[C@H]2CC[C@@H]1O2 [Compound 123] | > 11 |
| CCOC(=O)c1ccc(NC(=O)C2=C(c3cccc(C(F)(F)F)n3)[C@@H]3CCC2O3)cc1 [Compound 129] | > 33 |
